Target: xanthine oxidase (Bos taurus, UniProt P80457)
Assay: in vitro xanthine oxidase inhibition (hypoxanthine substrate, absorbance at 292, pH 7.4 buffer; Baker et al procedure)
Assay type: biochemical
Conditions: 1 min, test compound at 2 × 10^-6 (footnote 1), hypoxanthine 6 × 10^-5 M solution, 1 minute
Procedure: The procedure used employed the principals described in J. Pharm.
A reference cuvette is filled with 0.05M pH 7.4 buffer. For the control, mix quickly in a cuvette 2 ml. hypoxanthine solution (6 × 10^-^5 M), 2 ml.

Sequence of xanthine oxidase (P80457 whole entry): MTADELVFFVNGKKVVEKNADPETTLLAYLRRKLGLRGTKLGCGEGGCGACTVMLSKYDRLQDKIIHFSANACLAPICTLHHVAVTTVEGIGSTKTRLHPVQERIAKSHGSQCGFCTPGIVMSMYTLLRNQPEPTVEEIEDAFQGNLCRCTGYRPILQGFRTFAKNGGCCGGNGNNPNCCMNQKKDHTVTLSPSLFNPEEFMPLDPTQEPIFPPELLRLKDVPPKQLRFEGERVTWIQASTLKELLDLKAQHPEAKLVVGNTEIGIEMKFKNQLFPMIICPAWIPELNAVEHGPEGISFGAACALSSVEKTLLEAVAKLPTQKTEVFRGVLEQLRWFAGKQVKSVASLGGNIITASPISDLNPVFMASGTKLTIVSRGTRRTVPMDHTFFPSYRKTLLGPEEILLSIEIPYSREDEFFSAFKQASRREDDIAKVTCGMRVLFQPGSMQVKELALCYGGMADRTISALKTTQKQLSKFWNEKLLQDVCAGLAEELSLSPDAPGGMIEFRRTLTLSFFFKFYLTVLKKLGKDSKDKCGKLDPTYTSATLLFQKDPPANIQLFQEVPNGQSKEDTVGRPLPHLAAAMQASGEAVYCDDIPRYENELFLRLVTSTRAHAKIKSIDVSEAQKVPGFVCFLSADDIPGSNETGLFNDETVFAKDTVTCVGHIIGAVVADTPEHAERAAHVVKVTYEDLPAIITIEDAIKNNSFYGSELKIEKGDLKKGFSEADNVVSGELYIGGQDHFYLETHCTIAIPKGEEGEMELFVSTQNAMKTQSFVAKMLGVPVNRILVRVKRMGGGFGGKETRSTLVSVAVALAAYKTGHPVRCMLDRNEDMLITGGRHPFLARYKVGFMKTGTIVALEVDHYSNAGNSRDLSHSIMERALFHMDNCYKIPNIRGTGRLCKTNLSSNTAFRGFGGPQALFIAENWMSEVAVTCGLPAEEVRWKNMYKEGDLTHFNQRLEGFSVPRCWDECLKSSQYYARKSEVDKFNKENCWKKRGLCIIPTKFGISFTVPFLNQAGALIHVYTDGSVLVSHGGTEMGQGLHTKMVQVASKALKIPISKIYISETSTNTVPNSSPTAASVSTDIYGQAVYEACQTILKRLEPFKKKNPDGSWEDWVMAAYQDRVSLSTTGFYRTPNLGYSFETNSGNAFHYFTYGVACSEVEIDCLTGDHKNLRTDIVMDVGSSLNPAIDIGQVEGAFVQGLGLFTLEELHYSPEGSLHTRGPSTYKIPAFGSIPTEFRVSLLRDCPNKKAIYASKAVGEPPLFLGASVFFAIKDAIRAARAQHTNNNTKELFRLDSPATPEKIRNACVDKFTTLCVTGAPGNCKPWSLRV

CN(C)S(=O)(=O)c1cc2c(cc1Cl)N=C(CCl)NS2(=O)=O [3-Chloromethyl-6-chloro-7-N,N-dimethylsulfamoyl-1,2,4-benzothiadiazine-1,1-dioxide] was tested, and the inhibition at 2 µM was 52%.

Same assay, conditions: test compound 2 × 10^-5 M, hypoxanthine 6 × 10^-5 M solution, 1 minute

Point of comparison: CCN(CC)S(=O)(=O)c1cc2c(cc1Cl)N=C(CCl)NS2(=O)=O, inhibition at 20 µM 75%. Against it:
- CCNS(=O)(=O)c1cc2c(cc1Cl)NC(C(Cl)(Cl)Cl)NS2(=O)=O (centres unmarked) — lower, 63%
- C=CCN(CC=C)S(=O)(=O)c1cc2c(cc1Cl)NC(C(Cl)(Cl)Cl)NS2(=O)=O (centres unmarked) — lower, 6%
- CNS(=O)(=O)c1cc2c(cc1Cl)NC(C(Cl)(Cl)Cl)NS2(=O)=O (centres unmarked) — lower, 16%
- NS(=O)(=O)c1cc2c(cc1Cl)NC(C(Cl)(Cl)Cl)NS2(=O)=O (centres unmarked) — lower, 45%
- CCN(CC)S(=O)(=O)c1cc2c(cc1Cl)N=C(C(Cl)(Cl)Cl)NS2(=O)=O — lower, 3%
- CCN(CC)S(=O)(=O)c1cc2c(cc1Cl)N=C(C(Cl)Cl)NS2(=O)=O — lower, 18%
- CCNS(=O)(=O)c1cc2c(cc1Cl)N=C(C(Cl)Cl)NS2(=O)=O — lower, 6%
- C=CCN(CC=C)S(=O)(=O)c1cc2c(cc1Cl)N=C(CCl)NS2(=O)=O — lower, 53%
- CN(C)S(=O)(=O)c1cc2c(cc1Cl)N=C(C(C)(Cl)Cl)NS2(=O)=O — lower, 13%
- CN(C)S(=O)(=O)c1cc2c(cc1Cl)N=C(C(Cl)(Cl)Cl)NS2(=O)=O — lower, 5%
- CN(C)S(=O)(=O)c1cc2c(cc1Cl)N=C(C(Cl)Cl)NS2(=O)=O — lower, 11%
- CNS(=O)(=O)c1cc2c(cc1Cl)N=C(CCl)NS2(=O)=O — higher, 78%
- NS(=O)(=O)c1cc2c(cc1Cl)N=C(CCl)NS2(=O)=O — lower, 24%
- CCCN(CCC)S(=O)(=O)c1cc2c(c(Cl)c1Cl)N=C(C(Cl)(Cl)Cl)NS2(=O)=O — lower, 26%
- CCCN(CCC)S(=O)(=O)c1cc2c(c(Cl)c1Cl)N=C(CCl)NS2(=O)=O — lower, 33%
- CCCN(CCC)S(=O)(=O)c1cc2c(c(Cl)c1Cl)N=C(C(Cl)Cl)NS2(=O)=O — lower, 21%
- CCCN(CCC)S(=O)(=O)c1cc2c(cc1Cl)N=C(C(Cl)(Cl)Cl)NS2(=O)=O — lower, 14%
- CCCN(CCC)S(=O)(=O)c1cc2c(cc1Cl)N=C(CBr)NS2(=O)=O — lower, 30%
- CCCN(CCC)S(=O)(=O)c1cc2c(cc1Cl)N=C(CCl)NS2(=O)=O — lower, 69%
- CCCN(CCC)S(=O)(=O)c1cc2c(cc1Cl)N=C(C(Cl)Cl)NS2(=O)=O — lower, 12%
- CCCN(CCC)S(=O)(=O)c1cc2c(cc1Cl)NC(C(Cl)(Cl)Cl)NS2(=O)=O (centres unmarked) [3-Trichloromethyl-6-chloro-7-N,N-di-n-propylsulfamoyl-3,4-dihydro-1,2,4-benzothiadiazine-1,1-dioxide] — lower, 6%
